Source: patent US20240300934A1, “COMPOUNDS FOR MODULATING MYCOBACTERIUM TUBERCULOSIS RESPONSE” (priority 2021, published 2024)

Columns and labels:
Mtb [1] = details: mice that do not form caseous necrotic lesions; cited from earlier work
Mtb [2] = details: subset of mice failing to respond; cited from earlier work
[3] = tested on: rv2390c′::GFP reporter Mtb strain; assay type: cell-based, Mycobacterium tuberculosis; details: for rv2390c′::GFP reporter signal upon Mtb exposure to high [Cl−] (in words): 10 μM, 250 mM NaCl; for rv2390c′::GFP Cl− response phenotype: compared to C6
Mtb-infected J774 cells = details: 10 μM for 24 h; 5 days post-infection
Mtb [4] = assay: Intrabacterial drug accumulation assay; details: 24 h exposure; 7H9 pH 7 ± 250 mM NaCl
Mtb [5] = assay: Mtb growth assay in cholesterol media (OD600); assay type: cell-based, Mycobacterium tuberculosis; details: for Mtb growth in cholesterol media (in words): 10 μM, OD600; for Growth inhibition in cholesterol media phenotype: compared to C6
Mtb in J774 cells = assay: Mtb growth in J774 macrophage-like cells (mKO fluorescence); assay type: cell-based, Mycobacterium tuberculosis; details: for Mtb growth in J774 cells (in words): 10 μM, 6 days post-infection; for Inhibition of Mtb growth in J774 cells phenotype: compared to C6
Description: For the tertiary screen of selected hit compounds in J774 murine macrophage-like cells, 30,000 J774 cells/well were seeded in bar-coded 384-well black, clear bottom plates in a 30 μl volume in J774 infection media (DMEM+10% FBS+1 mM sodium pyruvate+2 mM L-glutamine) using a ThermoFisher Multidrop Combi reagent dispenser, one day prior to assay start. On the day of the assay, log-phase Mtb constitutively expressing mKO were pelleted and resuspended in 1 ml basal uptake buffer (0.5% bovine serum albumin+25 mM dextrose+0.5 mM MgCl2+1 mM CaCl2+0.1% gelatin in phosphate buffered saline (PBS), passed 6× though a tuberculin syringe with a 25 G×5/8″ needle, then resuspended in J774 infection media to a final OD600=0.2. 10 μl of this bacterial suspension was added to each well of the 384-well plates containing the J774 cells, followed by addition of 10 μl of the appropriate compounds (pre-aliquoted in v-bottom plates in a 1:1 mix of PBS:J774 infection media). Addition of Mtb and compounds were conducted using a Janus Ministation. For each test plate, two columns of controls (16 wells each) were included, with one column consisting of treatment with DMSO as a carrier control (negative control), and the other column consisting of treatment with 5 μM rifampicin (positive control). This tertiary assay was done as a dose-response assay in duplicate runs, with compounds tested beginning at a final concentration of 20 μM and two-fold dilutions down to 0.039 μM. Plates were kept in humidified ziplock bags in a 37° C., 5% CO2 incubator. 6 days post-infection, mKO fluorescence signal was read using a PerkinElmer EnVision multimode plate reader (bottom read filter, excitation 530/8 nm, Bodipy TMR D555 single mirror, emission 579/25 nm). mKO fluorescence in DMSO-treated control samples were defined as 100% growth, and fluorescence observed in treatment conditions calculated as a percentage from that set value.
For J774 infection in 96-well plates, 180,000 J774 cells were seeded per well in 180 μl of J774 infection media one day prior to infection. On the day of the assay, log-phase Mtb constitutively expressing mKO were pelleted and resuspended in 1 ml basal uptake buffer, passed 6× though a tuberculin syringe with a 25 G×5/8″ needle, then resuspended in J774 infection media to a final OD600=0.2. Media was removed from 96-well plate containing the J774 cells, with 140 μl of fresh J774 infection media added back to each well. 40 μl of the Mtb suspension at OD600=0.2 was added to each well, followed by addition of appropriate concentration of compound or DMSO in a 20 μl final volume in J774 infection media (compound final concentration 10 μM, rifampicin final concentration 5 μM, DMSO final concentration 0.1%/well). Bacterial mKO fluorescence was read immediately after infection using a Biotek Synergy Neo2 microplate reader (bottom read monochromator, excitation 543/10 nm, emission 565/10 nm), and again 6 days post-infection. Plates were kept in humidified ziplock bags in a 37° C., 5% CO2 incubator. mKO fluorescence in DMSO-treated control samples were defined as 100% growth, and fluorescence observed in treatment conditions calculated as a percentage from that set value.

J774 cells = assay: Intracellular drug accumulation assay in J774 cells; details: 24 h exposure; uninfected J774 cells
[6] = tested on: Mtb in bone marrow-derived macrophages (BMDMs); assay: Mtb growth in primary murine bone marrow-derived macrophages (CFU); assay type: cell-based, Mycobacterium tuberculosis; details: 10 μM; added 2 hrs post-infection; eight-day time-course
Description: C57BL/6J wild type mice (Jackson Laboratories) were used for extraction of bone marrow-derived macrophages. Cells were harvested and expanded in DMEM containing 10% FBS, 15% L-cell conditioned media, 2 mM L-glutamine, 1 mM sodium pyruvate, and penicillin/streptomycin as needed in a 37° C. incubator in a 5% CO2 atmosphere. […] Macrophages were lysed with water containing 0.01% sodium dodecyl sulfate and a dilution series of the samples plated on 7H10 agar for CFU determination.

NC(=O)c1cnccn1 [pyrazinamide]
efficacy in BALB/c mice (Mtb [1]): uniform efficacy across animals | response in C3HeB/FeJ mice (Mtb [2]): heterogeneous response

COc1nc2ccc(Br)cc2cc1[C@@H](c1ccccc1)[C@@](O)(CCN(C)C)c1cccc2ccccc12 [bedaquiline]
efficacy in BALB/c mice (Mtb [1]): uniform efficacy across animals | response in C3HeB/FeJ mice (Mtb [2]): heterogeneous response

CCSc1ccc(CN2CCN(c3nc4ccccc4o3)CC2)cc1 [JSF-4300, 2-(4-(4-(ethylthio)benzyl)piperazin-1-yl)benzo[d]oxazole]
rv2390c′::GFP reporter signal upon Mtb exposure to high [Cl−] (in words) [3]: continuing to demonstrate the phenotypes seen with the parental C6 compound | rv2390c′::GFP Cl− response phenotype [3]: Y | accumulation in Mtb-infected J774 cells (Mtb-infected J774 cells): robust accumulation | intrabacterial accumulation in Mtb (Mtb [4]): robust accumulation | Mtb growth in cholesterol media (in words) (Mtb [5]): continuing to demonstrate the phenotypes seen with the parental C6 compound | Growth inhibition in cholesterol media phenotype (Mtb [5]): Y | Mtb growth in J774 cells (in words) (Mtb in J774 cells): continuing to demonstrate the phenotypes seen with the parental C6 compound | Inhibition of Mtb growth in J774 cells phenotype (Mtb in J774 cells): Y | intracellular accumulation in J774 cells (J774 cells): robust accumulation

COc1ncc(CN2CCN(c3nc4ccccc4o3)CC2)cn1 [JSF-4271, 2-(4-((2-methoxypyrimidin-5-yl)methyl)piperazin-1-yl)benzo[d]oxazole]
rv2390c′::GFP reporter signal upon Mtb exposure to high [Cl−] (in words) [3]: lost the ability | rv2390c′::GFP Cl− response phenotype [3]: N | accumulation in Mtb-infected J774 cells (Mtb-infected J774 cells): minimal accumulation | intrabacterial accumulation in Mtb (Mtb [4]): decreased accumulation | Mtb growth in cholesterol media (in words) (Mtb [5]): no longer inhibited Mtb growth in cholesterol media | Growth inhibition in cholesterol media phenotype (Mtb [5]): N | Mtb bacterial load / growth in primary murine BMDM (in words) [6]: loss of the ability to inhibit Mtb growth | Mtb growth in J774 cells (in words) (Mtb in J774 cells): loss of the ability to inhibit Mtb growth | Inhibition of Mtb growth in J774 cells phenotype (Mtb in J774 cells): N | intracellular accumulation in J774 cells (J774 cells): minimal accumulation
